Reference: publication PMC7872314, “Modeling Bioavailable Concentrations in Zebrafish Cell Lines and Embryos Increases the Correlation of Toxicity Potencies across Test Systems” (Environmental Science & Technology, 2020)
Read-outs that look alike come from different tables or passages of the source.

Key:
[1] = tested on: zebrafish embryos; experiment: animal or person; type: in vivo, zebrafish (Danio rerio); conditions: for EC50: Danio rerio
[2] = tested on: ZF4 (fibroblasts) cell line; experiment: alamarBlue (AB) endpoint of AB/CFDA/NR multiplex, cellular respiration; type: cell-based, zebrafish (Danio rerio); conditions: Danio rerio, Fibroblast
[3] = tested on: ZF4 (fibroblasts) cell line; experiment: Neutral red, fluorescence (NRf), AB/CFDA/NR multiplex, lysosome stability; type: cell-based, zebrafish (Danio rerio); conditions: Danio rerio, Fibroblast
[4] = ref Comptox, PubChem or DrugBank; cited from earlier work
[5] = tested on: ZF4 (fibroblasts) cell line; experiment: MTS assay (MTS/BCA multiplex), NAD(P)H metabolism; type: cell-based, zebrafish (Danio rerio); conditions: Danio rerio, Fibroblast
[6] = tested on: ZFL (hepatocytes) cell line; experiment: cells; type: cell-based, zebrafish (Danio rerio); conditions: Danio rerio, Hepatocyte
[7] = tested on: ZFL (hepatocytes) cell line; experiment: cells; type: cell-based, zebrafish (Danio rerio); conditions: Danio rerio, Hepatocyte; remark: listed apart in the source
[8] = tested on: zebrafish embryos; parameters: method as in earlier work; conditions: nominal, cited from earlier work
[9] = tested on: ZF4 (fibroblasts) cell line; experiment: Neutral red, absorbance (NRa), AB/CFDA/NR multiplex, lysosome stability; type: cell-based, zebrafish (Danio rerio); conditions: Danio rerio, Fibroblast
[10] = tested on: ZFL (hepatocytes) cell line; experiment: cells; type: cell-based, zebrafish (Danio rerio); conditions: Danio rerio, Hepatocyte; remark: listed apart in the source
[11] = tested on: diverse mammalian cell assay results; parameters: method as in https://comptox.epa.gov/dashboard/; conditions: COMPTOX; ref https://comptox.epa.gov/dashboard/; read-out: median AC50; cited from earlier work
[12] = tested on: zebrafish cell lines vs zebrafish embryo; experiment: Potency ratios IC50;x/EC50;x (cytotoxicity assays vs mFET); parameters: species or system zebrafish (Danio rerio); conditions: median over cytotoxicity endpoints, nominal, 48 h cells / 48 hpf mFET
[13] = tested on: ZFL (hepatocytes) cell line; experiment: cells; type: cell-based, zebrafish (Danio rerio); conditions: Danio rerio, Hepatocyte; remark: listed apart in the source
[14] = tested on: ZFL (hepatocytes) cell line; experiment: cells; type: cell-based, zebrafish (Danio rerio); conditions: Danio rerio, Hepatocyte; remark: listed apart in the source
[15] = tested on: ZF4 (fibroblasts) cell line; experiment: BCA assay (MTS/BCA multiplex), protein amount; type: cell-based, zebrafish (Danio rerio); conditions: Danio rerio, Fibroblast
[16] = tested on: ZF4 (fibroblasts) cell line; experiment: CFDA endpoint of AB/CFDA/NR multiplex, membrane stability; type: cell-based, zebrafish (Danio rerio); conditions: Danio rerio, Fibroblast
[17] = tested on: ZFL (hepatocytes) cell line; experiment: cells; type: cell-based, zebrafish (Danio rerio); conditions: Danio rerio, Hepatocyte; remark: listed apart in the source
[18] = tested on: ZF4 and ZFL cell lines; experiment: Cytotoxicity assays, all endpoints, both cell lines (mean/range); type: cell-based, zebrafish (Danio rerio); conditions: 48 h, mean of all cytotoxicity endpoints (without LDH) in ZF4 and ZFL
[19] = tested on: ZF4 (fibroblasts) cell line; experiment: ATP assay (ATP/LDH multiplex), ATP metabolism; type: cell-based, zebrafish (Danio rerio); conditions: Danio rerio, Fibroblast
[20] = tested on: ZFL (hepatocytes) cell line; experiment: cells; type: cell-based, zebrafish (Danio rerio); conditions: Danio rerio, Hepatocyte; remark: listed apart in the source

CO[C@H]1C[C@H](O[C@H]2[C@H](C)O[C@@H](O[C@@H]3/C(C)=C/C[C@@H]4C[C@@H](C[C@]5(C=C[C@H](C)[C@@H](C6CCCCC6)O5)O4)OC(=O)[C@@H]4C=C(C)[C@@H](O)[C@H]5OC/C(=C\C=C\[C@@H]3C)[C@]54O)C[C@@H]2OC)O[C@@H](C)[C@@H]1O [Doramectin, doramectin]
difference in toxicity (EC50;nom) between 48 hpf and 144 hpf ([1]; 48 hpf time point less sensitive than 144 hpf): marginally more toxic | log EC50;nom (mFET) ([1]; 48 hpf, nominal, log10, listed as Dor): -5.914 M | EC50 ([1]; 48 hpf, nominal, log10, read-out: log EC50;nom (mFET) (converted)): 1.23 µM | EC50 ([1]; 48 hpf, nominal, read-out: EC50;nom (embryo)): 1.1 µg/mL | EC50 ([1]; read-out: EC50 48hpf): 1.22 µM | EC50 ([1]; read-out: EC50;nom (mFET)): 1.22 µM | IC50 ([2]; AB - ZF4, log10 of IC50, read-out: LogIC50 (converted)): 17.1 µM | IC50 ([2]; AB - ZF4, read-out: IC50): 17.1 µM | IC50 ([2]; ZF4, 48 h exposure, nominal, log10, read-out: logIC50 (log10 IC50;nom) AB (converted)): 17 µM | IC50 ([2]; ZF4, 48 h exposure, nominal, read-out: IC50;nom AB): 17.1 µM | IC50 ([3]; NR-fluo - ZF4, log10 of IC50, read-out: LogIC50 (converted)): 15.3 µM | IC50 ([3]; NR-fluo - ZF4, read-out: IC50): 15.3 µM | IC50 ([3]; ZF4, 48 h exposure, nominal, log10, read-out: logIC50 (log10 IC50;nom) NRf (converted)): 15.5 µM | IC50 ([3]; ZF4, 48 h exposure, nominal, read-out: IC50;nom NRf): 15.3 µM | BCF [4]: 5.26 | Physiological charge [4]: 0 | logKoa [4]: 9.63 | logKow [4]: 5.24 | pKa (Strongest Acidic) [4]: 12.47 | pKa (Strongest Basic) [4]: -3.4 | w_solubility (water solubility) [4]: 39.5 µM | IC50 ([5]; MTS - ZF4, log10 of IC50, read-out: LogIC50 (converted)): 12.3 µM | IC50 ([5]; MTS - ZF4, read-out: IC50): 12.3 µM | IC50 ([5]; ZF4, 48 h exposure, nominal, log10, read-out: logIC50 (log10 IC50;nom) MTS (converted)): 12.3 µM | IC50 ([5]; ZF4, 48 h exposure, nominal, read-out: IC50;nom MTS): 12.3 µM | IC50 ([6]; BCA - ZFL, log10 of IC50, read-out: LogIC50 (converted)): 4.44 µM | IC50 ([6]; BCA - ZFL, read-out: IC50): 4.44 µM | IC50 ([6]; ZFL, 48 h exposure, nominal, log10, read-out: logIC50 (log10 IC50;nom) BCA (converted)): 4.47 µM | IC50 ([6]; ZFL, 48 h exposure, nominal, read-out: IC50;nom BCA): 4.44 µM | IC50 ([7]; AB - ZFL, log10 of IC50, read-out: LogIC50 (converted)): 6.74 µM | IC50 ([7]; AB - ZFL, read-out: IC50): 6.74 µM | IC50 ([7]; ZFL, 48 h exposure, nominal, log10, read-out: logIC50 (log10 IC50;nom) AB (converted)): 6.76 µM | IC50 ([7]; ZFL, 48 h exposure, nominal, read-out: IC50;nom AB): 6.74 µM | EC50 ([8]; 144 hpf, converted): 0.645 µM | logEC50 144 hpf ([8]; log10): -6.19 M | IC50 ([9]; NR-abs - ZF4, log10 of IC50, read-out: LogIC50 (converted)): 14.6 µM | IC50 ([9]; NR-abs - ZF4, read-out: IC50): 14.6 µM | IC50 ([9]; ZF4, 48 h exposure, nominal, log10, read-out: logIC50 (log10 IC50;nom) NRa (converted)): 14.5 µM | IC50 ([9]; ZF4, 48 h exposure, nominal, read-out: IC50;nom NRa): 14.6 µM | IC50 ([9]; ZF4 cell line, NRa endpoint, nominal, read-out: IC50;nom): 13.1 µg/mL | IC50 ([10]; MTS - ZFL, log10 of IC50, read-out: LogIC50 (converted)): 9.41 µM | IC50 ([10]; MTS - ZFL, read-out: IC50): 9.42 µM | IC50 ([10]; ZFL, 48 h exposure, nominal, log10, read-out: logIC50 (log10 IC50;nom) MTS (converted)): 9.33 µM | IC50 ([10]; ZFL, 48 h exposure, nominal, read-out: IC50;nom MTS): 9.42 µM | AC50 [11]: 1.87 µM | potency ratio IC50;nom/EC50;nom (median) [12]: 7.68 | IC50 ([13]; NR-abs - ZFL, log10 of IC50, read-out: LogIC50 (converted)): 4.52 µM | IC50 ([13]; NR-abs - ZFL, read-out: IC50): 4.52 µM | IC50 ([13]; ZFL, 48 h exposure, nominal, log10, read-out: logIC50 (log10 IC50;nom) NRa (converted)): 4.57 µM | IC50 ([13]; ZFL, 48 h exposure, nominal, read-out: IC50;nom NRa): 4.52 µM | IC50 ([14]; CFDA - ZFL, log10 of IC50, read-out: LogIC50 (converted)): 9.33 µM | IC50 ([14]; CFDA - ZFL, read-out: IC50): 9.33 µM | IC50 ([14]; ZFL, 48 h exposure, nominal, log10, read-out: logIC50 (log10 IC50;nom) CFDA (converted)): 9.33 µM | IC50 ([14]; ZFL, 48 h exposure, nominal, read-out: IC50;nom CFDA): 9.33 µM | IC50 ([15]; BCA - ZF4, log10 of IC50, read-out: LogIC50 (converted)): 9.03 µM | IC50 ([15]; BCA - ZF4, read-out: IC50): 9.03 µM | IC50 ([15]; ZF4, 48 h exposure, nominal, log10, read-out: logIC50 (log10 IC50;nom) BCA (converted)): 9.12 µM | IC50 ([15]; ZF4, 48 h exposure, nominal, read-out: IC50;nom BCA): 9.03 µM | IC50 ([16]; CFDA - ZF4, log10 of IC50, read-out: LogIC50 (converted)): 16.8 µM | IC50 ([16]; CFDA - ZF4, read-out: IC50): 16.8 µM | IC50 ([16]; ZF4, 48 h exposure, nominal, log10, read-out: logIC50 (log10 IC50;nom) CFDA (converted)): 17 µM | IC50 ([16]; ZF4, 48 h exposure, nominal, read-out: IC50;nom CFDA): 16.8 µM | IC50 ([17]; NR-fluo - ZFL, log10 of IC50, read-out: LogIC50 (converted)): 5.08 µM | IC50 ([17]; NR-fluo - ZFL, read-out: IC50): 5.08 µM | IC50 ([17]; ZFL, 48 h exposure, nominal, log10, read-out: logIC50 (log10 IC50;nom) NRf (converted)): 5.13 µM | IC50 ([17]; ZFL, 48 h exposure, nominal, read-out: IC50;nom NRf): 5.08 µM | IC50 ([18]; Danio rerio, log10, read-out: Mean log IC50nom (converted)): 9.12 µM | Mean log IC50nom ([18]; log10, listed as Dor): -5.037 M | IC50 ([19]; ATP - ZF4, log10 of IC50, read-out: LogIC50 (converted)): 4.38 µM | IC50 ([19]; ATP - ZF4, read-out: IC50): 4.38 µM | IC50 ([19]; ZF4, 48 h exposure, nominal, log10, read-out: logIC50 (log10 IC50;nom) ATP (converted)): 4.37 µM | IC50 ([19]; ZF4, 48 h exposure, nominal, read-out: IC50;nom ATP): 4.38 µM | IC50 ([20]; ATP - ZFL, log10 of IC50, read-out: LogIC50 (converted)): 15.9 µM | IC50 ([20]; ATP - ZFL, read-out: IC50): 15.9 µM | IC50 ([20]; ZFL, 48 h exposure, nominal, log10, read-out: logIC50 (log10 IC50;nom) ATP (converted)): 15.8 µM | IC50 ([20]; ZFL, 48 h exposure, nominal, read-out: IC50;nom ATP): 15.9 µM
